From US11767320B2, “Bicyclic dione compounds as inhibitors of KRAS” (INCYTE CORPORATION, priority 2020, dated 2023)

What was measured:
[1] = test system: MIA PaCa-2 (KRAS G12C) cells; assay: Cellular pERK HTRF assay; type: cell-based; details: Homo sapiens; MIA PaCa-2 cells, 4 hours, phospho-ERK 1/2 HTRF; read-out: G12C_pERK (KRAS_G12C pERK assay IC50)
Procedure: MIA PaCa-2 (KRAS G12C; ATCC® CRL-1420), A427 (KRAS G12D; ATCC® HTB53), HPAF-II (KRAS G12D; ATCC® CRL-1997) and NCI-H838 (KRAS WT; ATCC® CRL-5844) cells are purchased from ATCC and maintained in RPMI 1640 media supplemented with 10% FBS (Gibco/Life Technologies). The cells are plated at 5000 cells per well (8 uL) into Greiner 384-well low volume, flat-bottom, tissue culture treated white plates and incubated overnight at 37° C. 5% CO2. The next morning, test compound stock solutions are diluted in media at 3× the final concentration, and 4 uL are added to the cells. The plate is mixed by gentle rotation for 30 seconds (250 rpm) at room temperature. The cells are incubated with the KRAS G12C and G12D compounds for 4 hours or 2 hours respectively at 37° C., 5% CO2.
4 uL of 4× lysis buffer with blocking reagent (1:25) (Cisbio) are added to each well and plates are rotated gently (300 rpm) for 30 minutes at room temperature. 4 uL per well of Cisbio anti Phospho-ERK 1/2 d2 is mixed with anti Phospho-ERK 1/2 Cryptate (1:1) are added to each well, mixed by rotation and incubated overnight in the dark at room temperature. Plates are read on the Pherastar plate reader at 665 nm and 620 nm wavelengths. IC50 determination is performed by fitting the curve of inhibitor percent inhibition versus the log of the inhibitor concentration using the GraphPad Prism 7 software.

KRAS G12C = KRAS G12C (Homo sapiens, UniProt P01116, G12C); assay: GDP-GTP exchange assay (fluorescence based guanine nucleotide exchange, bodipy-GDP for GppNHp, SOS1); type: biochemical; details: bodipy-loaded KRAS G12C, 2 hours pre-incubation with inhibitor, read-out: G12C_exchange (KRAS_G12C exchange assay IC50)
KRAS G12C, sequence (P01116 1-188 isoform P01116-2 G12C): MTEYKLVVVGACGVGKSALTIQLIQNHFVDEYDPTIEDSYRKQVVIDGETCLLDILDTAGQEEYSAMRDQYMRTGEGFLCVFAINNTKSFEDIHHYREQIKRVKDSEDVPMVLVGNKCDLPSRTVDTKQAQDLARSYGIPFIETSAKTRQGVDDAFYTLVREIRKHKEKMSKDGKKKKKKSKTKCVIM
Procedure: The inhibitor potency of the exemplified compounds was determined in a fluorescence based guanine nucleotide exchange assay, which measures the exchange of bodipy-GDP (fluorescently labeled GDP) for GppNHp (Non-hydrolyzable GTP analog) to generate the active state of KRAS in the presence of SOS1 (guanine nucleotide exchange factor). Inhibitors were serially diluted in DMSO and a volume of 0.1 μL was transferred to the wells of a black low volume 384-well plate. 5 μL/well volume of bodipy-loaded KRAS G12C diluted to 5 nM in assay buffer (25 mM Hepes pH 7.5, 50 mM NaCl, 10 mM MgCl2 and 0.01% Brij-35) was added to the plate and pre-incubated with inhibitor for 2 hours at ambient temperature. Appropriate controls (enzyme with no inhibitor or with a G12C inhibitor (AMG-510)) were included on the plate. The exchange was initiated by the addition of a 5 μL/well volume containing 1 mM GppNHp and 300 nM SOS1 in assay buffer. The 10 μL/well reaction concentration of the bodipy-loaded KRAS G12C, GppNHp, and SOS1 were 5-25 nM, 500 uM, and 150 nM, respectively. The reaction plates were incubated at ambient temperature for 2 hours, a time estimated for complete GDP-GTP exchange in the absence of inhibitor. For the KRAS G12D and G12V mutants, similar guanine nucleotide exchange assays were used with 2.5 nM as final concentration for the bodipy loaded KRAS proteins and with 4 hours and 3 hours incubation after adding GppNHp-SOS1 mixture for G12D and G12V, respectively. A cyclic peptide described to selectively bind G12D mutant (Sakamoto et al., BBRC 484.3 (2017), 605-611) or internal compounds with confirmed binding were used as positive controls in the assay plates. Fluorescence intensities were measured on a PheraStar plate reader instrument (BMG Labtech) with excitation at 485 nm and emission at 520 nm.
Either GraphPad prism or XLfit was used to analyze the data. The IC50 values were derived by fitting the data to a four parameter logistic equation producing a sigmoidal dose-response curve with a variable Hill coefficient. Prism equation: Y=Bottom+(Top−Bottom)/(1+10^((Log IC50−X)*Hill slope)); XLfit equation: Y=(A+((B−A)/(1+((X/C)^D)))) where X is the logarithm of inhibitor concentration and Y is the response.

SMILES | IC50 [1] [nM] | IC50 (KRAS G12C) [nM]
C=CC(=O)N1CC(F)(Cn2c(=O)c(=O)n(-c3c(C)ccnc3C(C)C)c3nc(-c4c(O)ccc(F)c4F)c(Cl)cc32)C1 [Example 23, 1-((1-acryloyl-3-fluoroazetidin-3-yl)methyl)-7-chloro-6-(2,3-difluoro-6-hydroxyphenyl)-4-(2-isopropyl-4-methylpyridin-3-yl)-1,4-dihydropyrido[2,3-b]pyrazine-2,3-dione] | ≤ 100 | ≤ 100
C=CC(=O)N1CC(F)(Cn2c(=O)c(=O)n(-c3c(C)ccnc3C(C)C)c3nc(-c4c(F)ccc(Cl)c4O)c(Cl)cc32)C1 [Example 24, 1-((1-acryloyl-3-fluoroazetidin-3-yl)methyl)-7-chloro-6-(3-chloro-6-fluoro-2-hydroxyphenyl)-4-(2-isopropyl-4-methylpyridin-3-yl)-1,4-dihydropyrido[2,3-b]pyrazine-2,3-dione] | ≤ 100 | ≤ 100
C=CC(=O)N1CC(F)(Cn2c(=O)c(=O)n(-c3c(C)ccnc3C(C)C)c3nc(-c4c(O)cccc4C(F)(F)F)c(Cl)cc32)C1 [Example 25, 1-((1-acryloyl-3-fluoroazetidin-3-yl)methyl)-7-chloro-6-(2-hydroxy-6-(trifluoromethyl)phenyl)-4-(2-isopropyl-4-methylpyridin-3-yl)-1,4-dihydropyrido[2,3-b]pyrazine-2,3-dione] | ≤ 100 | ≤ 100
C=CC(=O)N1CC(F)(Cn2c(=O)c(=O)n(-c3c(C)ccnc3C(C)C)c3nc(-c4cccc5c(C)n[nH]c45)c(Cl)cc32)C1 [Example 27, 1-((1-acryloyl-3-fluoroazetidin-3-yl)methyl)-7-chloro-4-(2-isopropyl-4-methylpyridin-3-yl)-6-(3-methyl-1H-indazol-7-yl)-1,4-dihydropyrido[2,3-b]pyrazine-2,3-dione] | 100 to 1000 | 100 to 1000
C=CC(=O)N1CC(F)(Cn2c(=O)c(=O)n(-c3c(C)ccnc3C(C)C)c3nc(-c4c(C)ccc5cn[nH]c45)c(Cl)cc32)C1 [Example 28, 1-((1-acryloyl-3-fluoroazetidin-3-yl)methyl)-7-chloro-4-(2-isopropyl-4-methylpyridin-3-yl)-6-(6-methyl-1H-indazol-7-yl)-1,4-dihydropyrido[2,3-b]pyrazine-2,3-dione] | ≤ 100 | ≤ 100
C=CC(=O)N1CC(F)(Cn2c(=O)c(=O)n(-c3c(C)ccnc3C(C)C)c3nc(-c4ccc(C)cc4F)c(Cl)cc32)C1 [Example 33, 1-((1-acryloyl-3-fluoroazetidin-3-yl)methyl)-7-chloro-6-(2-fluoro-4-methylphenyl)-4-(2-isopropyl-4-methylpyridin-3-yl)-1,4-dihydropyrido[2,3-b]pyrazine-2,3-dione] | ≤ 100 | ≤ 100
C=CC(=O)N1CC(F)(Cn2c(=O)c(=O)n(-c3c(C)ccnc3C(C)C)c3nc(-c4cccc(C)c4F)c(Cl)cc32)C1 [Example 34, 1-((1-acryloyl-3-fluoroazetidin-3-yl)methyl)-7-chloro-6-(2-fluoro-3-methylphenyl)-4-(2-isopropyl-4-methylpyridin-3-yl)-1,4-dihydropyrido[2,3-b]pyrazine-2,3-dione] | ≤ 100 | ≤ 100
C=CC(=O)N1CC(F)(Cn2c(=O)c(=O)n(-c3c(C)ccnc3C(C)C)c3nc(-c4cccc(Cl)c4Cl)c(Cl)cc32)C1 [Example 35, 1-((1-acryloyl-3-fluoroazetidin-3-yl)methyl)-7-chloro-6-(2,3-dichlorophenyl)-4-(2-isopropyl-4-methylpyridin-3-yl)-1,4-dihydropyrido[2,3-b]pyrazine-2,3-dione] | ≤ 100 | ≤ 100
C=CC(=O)N1CC(F)(Cn2c(=O)c(=O)n(-c3c(C)ccnc3C(C)C)c3nc(-c4ccccc4Cl)c(Cl)cc32)C1 [Example 36, 1-((1-acryloyl-3-fluoroazetidin-3-yl)methyl)-7-chloro-6-(2-chlorophenyl)-4-(2-isopropyl-4-methylpyridin-3-yl)-1,4-dihydropyrido[2,3-b]pyrazine-2,3-dione] | ≤ 100 | ≤ 100
C=CC(=O)N1CC(F)(Cn2c(=O)c(=O)n(-c3c(C)ccnc3C(C)C)c3nc(-c4ccccc4C(F)(F)F)c(Cl)cc32)C1 [Example 37, 1-((1-acryloyl-3-fluoroazetidin-3-yl)methyl)-7-chloro-4-(2-isopropyl-4-methylpyridin-3-yl)-6-(2-(trifluoromethyl)phenyl)-1,4-dihydropyrido[2,3-b]pyrazine-2,3-dione] | 100 to 1000 | ≤ 100
C=CC(=O)N1CC(Cn2c(=O)c(=O)n(-c3c(C)ccnc3C(C)C)c3nc(-c4c(O)cccc4F)c(Cl)cc32)(OC)C1 [Example 38, 1-((1-acryloyl-3-methoxyazetidin-3-yl)methyl)-7-chloro-6-(2-fluoro-6-hydroxyphenyl)-4-(2-isopropyl-4-methylpyridin-3-yl)-1,4-dihydropyrido[2,3-b]pyrazine-2,3-dione] | 100 to 1000 | 100 to 1000
C=CC(=O)N1CC(Cn2c(=O)c(=O)n(-c3c(C)ccnc3C(C)C)c3nc(-c4c(O)ccc(F)c4F)c(Cl)cc32)(OC)C1 [Example 39, 1-((1-acryloyl-3-methoxyazetidin-3-yl)methyl)-7-chloro-6-(2,3-difluoro-6-hydroxyphenyl)-4-(2-isopropyl-4-methylpyridin-3-yl)-1,4-dihydropyrido[2,3-b]pyrazine-2,3-dione] | 100 to 1000 | 100 to 1000
C=CC(=O)N1CC(Cn2c(=O)c(=O)n(-c3c(C)ccnc3C(C)C)c3nc(-c4c(N)cccc4F)c(Cl)cc32)(OC)C1 [Example 40, 1-((1-acryloyl-3-methoxyazetidin-3-yl)methyl)-6-(2-amino-6-fluorophenyl)-7-chloro-4-(2-isopropyl-4-methylpyridin-3-yl)-1,4-dihydropyrido[2,3-b]pyrazine-2,3-dione] | 100 to 1000 | 100 to 1000
C=CC(=O)N1CC(O)(Cn2c(=O)c(=O)n(-c3c(C)ccnc3C(C)C)c3nc(-c4c(O)cccc4F)c(Cl)cc32)C1 [Example 42, 1-((1-acryloyl-3-hydroxyazetidin-3-yl)methyl)-7-chloro-6-(2-fluoro-6-hydroxyphenyl)-4-(2-isopropyl-4-methylpyridin-3-yl)-1,4-dihydropyrido[2,3-b]pyrazine-2,3-dione] | 100 to 1000 | ≤ 100
C=CC(=O)N1CC(O)(Cn2c(=O)c(=O)n(-c3c(C)ccnc3C(C)C)c3nc(-c4c(O)ccc(F)c4F)c(Cl)cc32)C1 [Example 45, 1-((1-acryloyl-3-hydroxyazetidin-3-yl)methyl)-7-chloro-6-(5,6-difluoro-2-hydroxyphenyl)-4-(2-isopropyl-4-methylpyridin-3-yl)-1,4-dihydropyrido[2,3-b]pyrazine-2,3-dione] | 1000 to 5000 | ≤ 100
[2H]C([2H])(n1c(=O)c(=O)n(-c2c(C)ccnc2C(C)C)c2nc(-c3c(F)ccc(C)c3O)c(Cl)cc21)C1(F)CN(C(=O)C=C)C1 [Example 47, 1-((1-acryloyl-3-fluoroazetidin-3-yl)methyl-d2)-7-chloro-6-(6-fluoro-2-hydroxy-3-methylphenyl)-4-(2-isopropyl-4-methylpyridin-3-yl)-1,4-dihydropyrido[2,3-b]pyrazine-2,3-dione] | ≤ 100 | ≤ 100
